According to BindingDB's records for PubMed 33032085 (Guangzhou University of Chinese Medicine, 2021):

Assay: Inhibition of influenza A virus neuraminidase using 2-(4-methylumbelliferyl)-a-D-acetylneuraminic acid as substrate incubated for 30 mins by fluorescence based analysis

C=C1C[C@@H]2[C@@]3(C)CCC(=O)C(C)(C)[C@@H]3C(=O)C[C@@]2(C)[C@@]2(C(=O)OC)C(=O)[C@](C)(O)C(=O)[C@@]12C
IC50: 18 nM
